From PubChem BioAssay AID192 (DTP/NCI, 2004)
“And” between values parts separate entries of the source, which are not always exact repeats. Equal entries are not always repeated. Inconclusive results and toxic doses are left out. The calls were made as follows: active = survival T/C of 150% or more; inactive = T/C below 125% in these data.

Test system: BDF1 mice, B16 melanoma ip, median survival T/C
Test: NCI In Vivo Anticancer Drug Screen. Data for tumor model B16 Melanoma (intraperitoneal) in B6D2F1 (BDF1) mice
Conditions: endpoint: median survival time, higher = longer survival
Summary of the method: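 Survival or tumor size is measured after treatment of tumor-bearing mice and normalised to the vehicle-treated control group.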

[1] = dose: 100.0 mg/kg/injection, schedule: Q01DX009 (ip), vehicle: Klucel (hydroxypropylcellulose) (HPC)
[2] = dose: 200.0 mg/kg/injection, schedule: Q01DX009 (ip), vehicle: Klucel (hydroxypropylcellulose) (HPC)
[3] = dose: 12.5 mg/kg/injection, schedule: Q01DX009 (ip), vehicle: Klucel (hydroxypropylcellulose) (HPC)
[4] = dose: 25.0 mg/kg/injection, schedule: Q01DX009 (ip), vehicle: Klucel (hydroxypropylcellulose) (HPC)
[5] = dose: 50.0 mg/kg/injection, schedule: Q01DX009 (ip), vehicle: Klucel (hydroxypropylcellulose) (HPC)
[6] = dose: 100.0 mg/kg/injection, schedule: Q01DX009 (ip), vehicle: saline
[7] = dose: 200.0 mg/kg/injection, schedule: Q01DX009 (ip), vehicle: saline
[8] = dose: 12.5 mg/kg/injection, schedule: Q01DX009 (ip), vehicle: saline
[9] = dose: 25.0 mg/kg/injection, schedule: Q01DX009 (ip), vehicle: saline
[10] = dose: 50.0 mg/kg/injection, schedule: Q01DX009 (ip), vehicle: saline
[11] = dose: 25.0 mg/kg/injection, schedule: Q01DX009 (ip), vehicle: saline with Tween-80
[12] = dose: 100.0 mg/kg/injection, schedule: Q01DX009 (ip), vehicle: saline with Tween-80
[13] = dose: 200.0 mg/kg/injection, schedule: Q01DX009 (ip), vehicle: saline with Tween-80
[14] = dose: 400.0 mg/kg/injection, schedule: Q01DX009 (ip), vehicle: saline with Tween-80
[15] = dose: 400.0 mg/kg/injection, schedule: Q01DX009 (ip), vehicle: Klucel (hydroxypropylcellulose) (HPC)
[16] = dose: 50.0 mg/kg/injection, schedule: Q01DX009 (ip), vehicle: saline with Tween-80

Measured: T/C

Cc1c[nH]c(=O)[nH]c1=O
inactive: dose: 32.0 mg/kg/injection, schedule: Q01DX009 (ip), vehicle: Klucel (hydroxypropylcellulose) (HPC) 97 % of control and 102 % of control | dose: 32.0 mg/kg/injection, schedule: Q01DX009 (ip), vehicle: saline with Tween-80 91 % of control | dose: 64.0 mg/kg/injection, schedule: Q01DX009 (ip), vehicle: Klucel (hydroxypropylcellulose) (HPC) 97 % of control | dose: 64.0 mg/kg/injection, schedule: Q01DX009 (ip), vehicle: saline with Tween-80 100 % of control | dose: 128.0 mg/kg/injection, schedule: Q01DX009 (ip), vehicle: Klucel (hydroxypropylcellulose) (HPC) 97 % of control and 103 % of control | dose: 256.0 mg/kg/injection, schedule: Q01DX009 (ip), vehicle: Klucel (hydroxypropylcellulose) (HPC) 100 % of control and 103 % of control | dose: 512.0 mg/kg/injection, schedule: Q01DX009 (ip), vehicle: Klucel (hydroxypropylcellulose) (HPC) 98 % of control and 103 % of control | dose: 512.0 mg/kg/injection, schedule: Q01DX009 (ip), vehicle: saline with Tween-80 107 % of control

CC(=O)OC(C)c1ccccc1 (stereo not given)
inactive: [1] 93 % of control | [2] 96 % of control

CC(=O)OCC1OC(OC2=C(CC=C(C)C)C(=O)c3ccccc3C2=O)C(OC(C)=O)C(OC(C)=O)C1OC(C)=O (stereo not given)
inactive: dose: 6.25 mg/kg/injection, schedule: Q01DX009 (ip), vehicle: Klucel (hydroxypropylcellulose) (HPC) 95 % of control and 98 % of control | [3] 87 % of control | [4] 87 % of control | [5] 88 % of control and 91 % of control | [1] 92 % of control

CCCOCC(O)CO (stereo not given)
inactive: [6] 118 % of control | [7] 118 % of control | dose: 400.0 mg/kg/injection, schedule: Q01DX009 (ip), vehicle: saline 112 % of control

Cc1cnc2c(N)[nH]nc2n1
inactive: [5] 97 % of control | [1] 106 % of control | [2] 107 % of control

CC(C)(N)Cc1ccc(Cl)cc1
inactive: dose: 6.25 mg/kg/injection, schedule: Q01DX009 (ip), vehicle: saline 110 % of control | [8] 90 % of control | [9] 97 % of control | [10] 100 % of control | [6] 100 % of control

O=C1c2cccc3cc([N+](=O)[O-])cc(c23)C(=O)N1CCN1CCCC1
inactive: dose: 1.56 mg/kg/injection, schedule: Q01DX009 (ip), vehicle: saline with Tween-80 109 % of control | dose: 3.12 mg/kg/injection, schedule: Q01DX009 (ip), vehicle: saline with Tween-80 110 % of control and 111 % of control | dose: 6.25 mg/kg/injection, schedule: Q01DX009 (ip), vehicle: saline with Tween-80 91 % of control and 118 % of control | [11] 110 % of control

CCCCCCCCCCCCCCCCCC(=O)NN
inactive: [3] 103 % of control | [4] 98 % of control | [5] 105 % of control | dose: 100.0 mg/kg/injection, schedule: Q01DX009 (ip), vehicle: carboxymethylcellulose (CMC) 94 % of control

O=C(O)CC(NCc1ccccc1)C(=O)O (stereo not given)
inactive: [12] 97 % of control | [13] 102 % of control | [14] 100 % of control

COc1ccc(C2CCc3cc4c(cc3/C2=N/OC(C)=O)OCO4)cc1OC (stereo not given)
inactive: [1] 109 % of control | [2] 110 % of control | [15] 105 % of control

CCC(=O)Nc1ccc(C)c(Cl)c1
inactive: [12] 105 % of control | [13] 105 % of control | [14] 115 % of control

CCCCN(CC)C(=S)S[Te](SC(=S)N(CC)CCCC)(SC(=S)N(CC)CCCC)SC(=S)N(CC)CCCC
inactive: [1] 110 % of control | [15] 100 % of control

Cc1cc2nc(CN)[nH]c2cc1C
inactive: [16] 110 % of control | [12] 97 % of control | [13] 97 % of control

CCNc1nc(NCC)nc(SC)n1
inactive: [11] 97 % of control | [16] 87 % of control | [12] 105 % of control

CN1C(=O)C=CC1=O
inactive: dose: 0.5 mg/kg/injection, schedule: Q02DX009 (ip), vehicle: saline 109 % of control | dose: 1.0 mg/kg/injection, schedule: Q02DX009 (ip), vehicle: saline 99 % of control | dose: 2.0 mg/kg/injection, schedule: Q02DX009 (ip), vehicle: saline 98 % of control | dose: 4.0 mg/kg/injection, schedule: Q02DX009 (ip), vehicle: saline 90 % of control

CC1=Nc2ccccc2/C1=C\c1c(C)[nH]c2ccccc12
inactive: [9] 110 % of control | [10] 113 % of control | [6] 121 % of control | [7] 97 % of control

CCC(C)c1ccc(O)c(C(C)CC)c1 (stereo not given)
inactive: dose: 88.0 mg/kg/injection, schedule: Q01DX009 (ip), vehicle: saline with Tween-80 123 % of control | dose: 133.0 mg/kg/injection, schedule: Q01DX009 (ip), vehicle: saline with Tween-80 108 % of control | [13] 105 % of control | dose: 300.0 mg/kg/injection, schedule: Q01DX009 (ip), vehicle: saline with Tween-80 108 % of control

Cc1ccc(NC(=O)Nc2cccc3ccccc23)c(C)c1
inactive: [1] 89 % of control | [2] 98 % of control

OC(CCl)Cc1ccccc1 (stereo not given)
inactive: [8] 102 % of control | [9] 95 % of control | [10] 100 % of control

CC(=O)[O][Pb]([CH2]CC(C)C)([CH2]CC(C)C)[CH2]CC(C)C
inactive: dose: 0.75 mg/kg/injection, schedule: Q01DX009 (ip), vehicle: Klucel (hydroxypropylcellulose) (HPC) 100 % of control | dose: 1.5 mg/kg/injection, schedule: Q01DX009 (ip), vehicle: Klucel (hydroxypropylcellulose) (HPC) 86 % of control

Cc1ccc([N+](=O)[O-])cc1NC(=O)Oc1ccc(Cl)cc1
inactive: dose: 25.0 mg/kg/injection, schedule: Q04DX009 (ip), vehicle: Klucel (hydroxypropylcellulose) (HPC) 94 % of control | dose: 50.0 mg/kg/injection, schedule: Q04DX009 (ip), vehicle: Klucel (hydroxypropylcellulose) (HPC) 104 % of control | dose: 100.0 mg/kg/injection, schedule: Q04DX003 (ip), vehicle: carboxymethylcellulose (CMC) 93 % of control | dose: 100.0 mg/kg/injection, schedule: Q04DX009 (ip), vehicle: Klucel (hydroxypropylcellulose) (HPC) 96 % of control | dose: 400.0 mg/kg/injection, schedule: Q04DX003 (ip), vehicle: carboxymethylcellulose (CMC) 86 % of control

O=C(CBr)c1ccc(I)cc1
inactive: dose: 1.25 mg/kg/injection, schedule: Q01DX009 (ip), vehicle: saline with Tween-80 90 % of control | dose: 2.5 mg/kg/injection, schedule: Q01DX009 (ip), vehicle: saline with Tween-80 102 % of control | dose: 5.0 mg/kg/injection, schedule: Q01DX009 (ip), vehicle: saline with Tween-80 95 % of control | dose: 10.0 mg/kg/injection, schedule: Q01DX009 (ip), vehicle: saline with Tween-80 95 % of control | dose: 20.0 mg/kg/injection, schedule: Q01DX009 (ip), vehicle: saline with Tween-80 88 % of control

COc1ccccc1NC(=O)Nc1ccccc1
inactive: [1] 104 % of control | [2] 103 % of control | [15] 109 % of control

CCC1(C(C)Br)OC2=C(CC(C#N)(C#N)C(C#N)(C#N)C2)O1 (stereo not given)
inactive: dose: 75.0 mg/kg/injection, schedule: Q04DX003 (ip), vehicle: Klucel (hydroxypropylcellulose) (HPC) 87 % of control

Brc1cnc(OCc2ccccc2)nc1OCc1ccccc1
inactive: [1] 118 % of control | [2] 110 % of control | [15] 107 % of control

COc1cccc2c1C(=O)c1c(O)c3c(c(O)c1C2=O)C[C@@](O)(C(=O)CN1CCN(C)CC1)C[C@@H]3OC1CC(N)C(O)C(C)O1 (stereo not given in full)
inactive: dose: 1.56 mg/kg/injection, schedule: Q01DX009 (ip), vehicle: water 110 % of control | dose: 3.13 mg/kg/injection, schedule: Q01DX009 (ip), vehicle: water 113 % of control

C=C1C(=O)O[C@@H]2C[C@@H](C)[C@@H]3C=CC(=O)[C@@]3(C)[C@@H](O)[C@H]12
inactive: dose: 2.0 mg/kg/injection, schedule: Q01DX009 (ip), vehicle: saline + alcohol 120 % of control | dose: 2.0 mg/kg/injection, schedule: Q01DX009 (ip), vehicle: saline 104 % of control | dose: 4.0 mg/kg/injection, schedule: Q01DX009 (ip), vehicle: saline + alcohol 115 % of control | dose: 4.0 mg/kg/injection, schedule: Q01DX009 (ip), vehicle: saline 95 % of control | dose: 8.0 mg/kg/injection, schedule: Q01DX009 (ip), vehicle: saline + alcohol 115 % of control | dose: 8.0 mg/kg/injection, schedule: Q01DX009 (ip), vehicle: saline 105 % of control
